Measurements published in patent US8017828B2, “Utilization of rare sugars in plant or microorganism” (Shikoku Research Institute Incorporated, priority 2004, dated 2011).

How the values were obtained:
[1] = system: cherry tomato plant “mini carol”; assay: Hydroponic growth of cherry tomato with D-psicose 0.001-0.03%; assay type: in vivo; settings: for number of flower clusters compared with the control plot: control plot 2.0
Experimental: On Jun. 10, 2003, a cherry tomato plant “mini carol” was transplanted for permanent planting to a hydroponic apparatus, and from 7 days after the permanent planting, 4 treated plots (0%, 0.001%, 0.01% and 0.03%) were prepared by adding D-psicose to a nutrient culture solution. A survey was carried out with regard to the growth at […] after the treatment (July 22). […] The fresh weight was larger in the plot of 0.001%, and was smaller in the plot of 0.03% compared with the control plot. When the fresh weight was seen according to the parts, roots and leaves were larger in the plot of 0.001%.

[2] = system: Fusarium oxysporum IFO 31213 strain; assay: Infection of treated tomato seeds on agar with Fusarium oxysporum; assay type: in vivo, tomato plant (variety: “House Momotaro”)
Experimental: (§1) Therefore, by using a tomato plant and a strain of Fusarium oxysporum, which is a typical pathogenic bacterium of tomato, an effect of D-psicose during infection was examined.
(§2) To be more specific, seeds of a tomato plant (variety: “House Momotaro”) were subjected to an immersion treatment by immersing them in a D-psicose solution at a concentration of from 0.01% (w/v) to 0.1% (w/v) for 15 minutes while stirring slowly, followed by air-drying on sterile gauze, and then used as treated seeds. At the center of a plastic dish with a diameter of 9 cm filled with 25 ml of 1% (w/v) agar, a mycelial disc (diameter: 1 cm) obtained by pushing out Fusarium oxysporum (IFO 9967 strain and IFO 31213 strain) cultured for 1 week on a potato dextrose agar medium using a cork borer along with the agar medium was placed, and 10 seeds of the above treated seeds were placed equally spaced around the disc. At this time, test plots in which D-psicose was added to the agar medium at a concentration of from 0.01% (w/v) to 0.1% (w/v) were prepared. Then, the dishes were placed at 23° C. under the dark condition for 7 days to 10 days, and observation was carried out with regard to the elongation of shoot, the elongation of root, the shoot development rate, the infection state in root and the like.

[3] = system: Fusarium oxysporum IFO 9967 strain; assay: as above; assay type: in vivo, tomato plant (variety: “House Momotaro”)
Experimental: as §1, §2

[4] = system: strawberry plant (variety: “smile ruby”); assay: Foliar spraying of sugar on potted strawberry, fruit harvest; assay type: in vivo; settings: 0.5% (w/v) sprayed three times weekly
Experimental: A strawberry plant (variety: “smile ruby”) was used in an experiment. The strawberry plants were planted in pots and from Feb. 13, 2004, while the cultivation was carried out in a glass house, water or a 0.5% (w/v) sugar solution was sprayed onto the whole plant on a three times weekly basis. As for the types of sugars, D-glucose and D-psicose were used and two pots were cultivated for each test plot. While the cultivation was continued, the number of fruits, the weight of fruits, the sugar content of fruits were measured with regard to the fruits that could be harvested by Mar. 25, 2004.

[5] = system: cherry tomato plant “mini carol”; assay: Growth of cherry tomato seedlings with D-allose in nutrient solution; assay type: in vivo; set-up: key to Number of opening flowers: z: Bud formation could not be confirmed; settings: for Fresh leaf weight / Fresh stem weight / Number of leaves / Number of opening flowers / Stem diameter / Stem length: 4 weeks
Experimental: On Jul. 13, 2004, seeds of a cherry tomato plant “mini carol” (Sakata Seed Co., Ltd.) were sown one by one in the respective holes using 30 holes among the 253 holes of a rockwool (280 mm (width)×580 mm (length)), which was placed in a plastic container with a capacity of 8 L. In this plastic container, 1 L of each nutrient solution in which a fertilizer (Otsuka No. 1 (1.5 g/L) and Otsuka No. 2 (1.0 g/L)) was dissolved was poured, then, the cultivation was carried out in a glass chamber without heating. With regard to a treated plot, 7 treated plots in which a treatment liquid obtained by adding D-allose at 0 to 5 mM to the fertilizer nutrient solution was poured in the plastic container from July 20 when the seeds germinated completely were prepared. Incidentally, the treatment liquid was added in the same amount to the respective treated plots according to need. A survey was carried out with regard to the growth at 4 weeks after the initiation of the treatment.

[6] = D-psicose seed 0.01%, medium 0.01%
[7] = D-psicose seed 0.01%, medium non
[8] = D-psicose seed 0.05%, medium 0.05%
[9] = D-psicose seed 0.05%, medium non
[10] = D-psicose seed 0.10%, medium 0.10%
[11] = D-psicose seed 0.10%, medium non
[12] = seeds treated, and seeds treated plus agar medium

SMILES: O=C(CO)[C@H](O)[C@H](O)[C@H](O)CO [D-psicose]
- fresh weight compared with the control plot ([1]; 0.001%): larger
- maximum root length compared with the control plot ([1]; 0.001%): slightly longer
- number of leaves compared with the control plot ([1]; 0.001%): slightly larger
- stem length compared with the control plot ([1]; 0.001% in nutrient culture solution): slightly longer
- number of flower clusters compared with the control plot ([1]; 0.001%): slightly larger
- maximum root length compared with the control plot ([1]; 0.01%): slightly shorter
- stem diameter compared with the control plot ([1]; 0.01%): slightly larger
- stem length compared with the control plot ([1]; 0.01%): slightly longer
- fresh weight compared with the control plot ([1]; 0.03%): smaller
- maximum root length compared with the control plot ([1]; 0.03%): slightly shorter
- number of leaves compared with the control plot ([1]; 0.03%): slightly smaller
- stem diameter compared with the control plot ([1]; 0.03%): slightly smaller
- stem length compared with the control plot ([1]; 0.03%): slightly shorter
- number of flower clusters compared with the control plot ([1]; 0.03%): slightly smaller
- mycelial elongation of Fusarium oxysporum ([2]; D-psicose added to the agar medium): inhibited
- Root length [2, 6]: 4.7 cm
- Shoot length [2, 6]: 4.5 cm
- Root length [2, 7]: 3.9 cm
- Shoot length [2, 7]: 4.7 cm
- Root length [2, 8]: 3.5 cm
- Shoot length [2, 8]: 4.5 cm
- Root length [2, 9]: 3.8 cm
- Shoot length [2, 9]: 4.2 cm
- Root length [2, 10]: 2.1 cm
- Shoot length [2, 10]: 2.9 cm
- Root length [2, 11]: 3.2 cm
- Shoot length [2, 11]: 3.0 cm
- browning caused by infection of roots with Fusarium oxysporum [2, 12]: reduction
- shoot development rate [2, 12]: improvement
- Root length [3, 6]: 4.5 cm
- Shoot length [3, 6]: 5.2 cm
- Root length [3, 7]: 4.1 cm
- Shoot length [3, 7]: 5.1 cm
- Root length [3, 8]: 3.7 cm
- Shoot length [3, 8]: 5.7 cm
- Root length [3, 9]: 3.3 cm
- Shoot length [3, 9]: 3.4 cm
- Root length [3, 10]: 2.0 cm
- Shoot length [3, 10]: 3.8 cm
- Root length [3, 11]: 3.7 cm
- Shoot length [3, 11]: 4.3 cm
- browning caused by infection of roots with Fusarium oxysporum [3, 12]: reduction
- shoot development rate [3, 12]: improvement
- average weight of fruits ([4]; increased from 13.5 g): 16.6 g
- number of fruits that could be harvested during the cultivation period ([4]; increased from 25): 38
- total weight of fruits that could be harvested ([4]; increased from 337.8 g): 630.3 g

SMILES: O=C[C@H](O)[C@H](O)[C@H](O)[C@H](O)CO [D-allose]
- flowering ([5]; 0.01 mM): promoting flowering
- promotion of growth in the stem length in comparison with the untreated plot ([5]; 0.01 mM): 33%
- promotion of growth in the stem weight in comparison with the untreated plot ([5]; 0.01 mM): 67%
- growth ([5]; 5 mM): some growth inhibition
- Fresh leaf weight ([5]; D-allose 0.01 mM): 10.9 g
- Fresh stem weight ([5]; D-allose 0.01 mM): 16.4 g
- Number of leaves ([5]; D-allose 0.01 mM): 9.3
- Number of opening flowers ([5]; D-allose 0.01 mM): 0.6
- Stem diameter ([5]; D-allose 0.01 mM): 5.3 mm
- Stem length ([5]; D-allose 0.01 mM): 69.1 cm
- Fresh leaf weight ([5]; D-allose 0.05 mM): 6.9 g
- Fresh stem weight ([5]; D-allose 0.05 mM): 11.7 g
- Number of leaves ([5]; D-allose 0.05 mM): 8.9
- Number of opening flowers ([5]; D-allose 0.05 mM): 0.4
- Stem diameter ([5]; D-allose 0.05 mM): 4.3 mm
- Stem length ([5]; D-allose 0.05 mM): 60.9 cm
- Fresh leaf weight ([5]; D-allose 0.1 mM): 8.6 g
- Fresh stem weight ([5]; D-allose 0.1 mM): 11.1 g
- Number of leaves ([5]; D-allose 0.1 mM): 9.0
- Number of opening flowers ([5]; D-allose 0.1 mM): 0.0
- Stem diameter ([5]; D-allose 0.1 mM): 4.3 mm
- Stem length ([5]; D-allose 0.1 mM): 56.7 cm
- Fresh leaf weight ([5]; D-allose 0.5 mM): 8.3 g
- Fresh stem weight ([5]; D-allose 0.5 mM): 11.2 g
- Number of leaves ([5]; D-allose 0.5 mM): 8.3
- Number of opening flowers ([5]; D-allose 0.5 mM): 0.0
- Stem diameter ([5]; D-allose 0.5 mM): 4.5 mm
- Stem length ([5]; D-allose 0.5 mM): 57.0 cm
- Fresh leaf weight ([5]; D-allose 1.0 mM): 9.7 g
- Fresh stem weight ([5]; D-allose 1.0 mM): 13.7 g
- Number of leaves ([5]; D-allose 1.0 mM): 9.6
- Number of opening flowers ([5]; D-allose 1.0 mM): 0.0
- Stem diameter ([5]; D-allose 1.0 mM): 4.8 mm
- Stem length ([5]; D-allose 1.0 mM): 59.0 cm
- Fresh leaf weight ([5]; D-allose 5.0 mM): 4.8 g
- Fresh stem weight ([5]; D-allose 5.0 mM): 6.7 g
- Number of leaves ([5]; D-allose 5.0 mM): 7.0
- Number of opening flowers ([5]; D-allose 5.0 mM): z
- Stem diameter ([5]; D-allose 5.0 mM): 4.2 mm
- Stem length ([5]; D-allose 5.0 mM): 40.4 cm
